{"source": "patent US20120060243A1", "about": "“Herbicide-Resistant AHAS-Mutants and Methods of Use” (priority 2008, published 2012)", "format_in_all_cases": "in vivo, Brassica napus", "key": {"[1]": {"test_system": "BnCL120C7 (AHAS III A122T single mutant)", "test": "Plant injury after herbicide spray, Table 3", "settings": "3-4 leaf stage, 2 weeks after treatment, line BnCL120C7", "experimental": "(§1) B. napus plants containing the double mutant were also tested for plant injury due to imidazolinone herbicide application. B. napus plants for lines BN02 (wild type), BnCL131A1 (AHAS III A122T:S653N double mutant), BnCL120C7 (AHAS III A122T single mutant), BnCL97 (AHAS III S653N single mutant), PM1/PM2 (commercial two gene check), PM1 (AHAS I S653N single mutant) and PM2 (AHAS III W574L single mutant) were grown from seed until 3-4 leaf stage then either left unsprayed or sprayed with 35, 70 or 210 g ai/ha imazamox supplemented with 0.5% v/v Merge. Herbicide injury was evaluated 2 weeks after treatment (DAT) on 8-24 plants per line using a 0 to 9 scale where 0 is no injury and 9 is plant death. The results are presented as mean injury±one standard error of the mean in Table 3 below. The results presented cover two independent plantings and sprays for all lines except BnCL97. The table also presents values for ±one standard error of the mean."}, "[2]": {"test_system": "BN-02 (wild type)", "test": "Plant injury after herbicide spray, Table 3", "settings": "3-4 leaf stage, 2 weeks after treatment, line BN-02", "experimental": "as §1"}, "[3]": {"test_system": "BnCL131A1 (AHAS III A122T:S653N double mutant)", "test": "Plant injury after herbicide spray, Table 3", "settings": "3-4 leaf stage, 2 weeks after treatment, line BnCL131A1", "experimental": "as §1"}, "[4]": {"test_system": "PM2 (AHAS III W574L single mutant)", "test": "Plant injury after herbicide spray, Table 3", "settings": "3-4 leaf stage, 2 weeks after treatment, line PM2", "experimental": "as §1"}, "[5]": {"test_system": "PM1/PM2 (commercial two gene check)", "test": "Plant injury after herbicide spray, Table 3", "settings": "3-4 leaf stage, 2 weeks after treatment, line PM1/PM2", "experimental": "as §1"}, "[6]": {"test_system": "PM1 (AHAS I S653N single mutant)", "test": "Plant injury after herbicide spray, Table 3", "settings": "3-4 leaf stage, 2 weeks after treatment, line PM1", "experimental": "as §1"}, "[7]": {"test_system": "BnCL97 (AHAS III S653N single mutant)", "test": "Plant injury after herbicide spray, Table 3", "settings": "3-4 leaf stage, 2 weeks after treatment, line BnCL97", "experimental": "as §1"}, "[8]": {"test_system": "PM1PM2/BnCL131A1, S653N (He), W574L (He)/A122T-S653N (He)", "settings": "for Mean Percent Crop Phytotoxicity (% Crop Injury): field, 2-4 leaf stage; for Expected Additive % Herbicide Tolerance: sum of BnCL131A1 (He) + PM2 (AHASL1A-PM2) + PM1 (AHASL1C-PM1)", "excerpt": "(§2) Hand-crossed hybrids were produced in the greenhouse between two IMI-tolerant spring Brassica napus parental lines: “BnCL131A1” (homozygous for the A genome IMI-tolerant mutation AHASL1A-A122(At)T-S653(At)N) and “PM1PM2” (homozygous for the A genome AHAS-inhibitor tolerant mutation AHASL1A-W574(At)L (PM2) plus the C genome AHAS-inhibitor tolerant mutation AHASL1C-S653(At)N(PM1)). The resulting heterozygous hand-crossed hybrid line, “PM1PM2/BnCL131A 1” (heterozygous for the stacked mutations: AHASL1A-A122(At)T-S653(At)N, AHASL1A-W574(At)L (PM2), AHASL1C-S653(At)N(PM1)) was field tested together with lines each containing only one AHAS-inhibitor tolerant mutation (homozygous or heterozygous) and several spring Brassica napus checks.\n(§3) The three repetition trial was conducted in Simcoe, N. Dak., and used a randomized split block design. The trial was designed to measure the percent phytotoxicity (% crop injury) of the different entries under 5 different imidazolinone herbicide treatment rates. Plants were sprayed at the 2-4 leaf stage at a volume of 100 liters/ha. The imidazolinone herbicide rates used were as follows (Imazamox=BEYOND™ 120 g/I LC (BAS 72001H); NIS=INDUCE™ 90 (90% non-ionic surfactant; Helena Chemical Co., Collierville, Tenn.):\n(§4) Crop Injury Ratings were determined in the field by assessing each plot in the trial for the level of phytotoxicity (percent crop injury) on a scale from 0-100% at 18 days after treatment. Mean values for each entry across the three replications along with their statistical significance (ANOVA) are presented in Table 6 (Ho=homozygous; He=heterozygous). Each value presented in Table 6 is the mean of three replications.\n(§5) The percent phytotoxicity (% crop injury) ratings were transposed into Herbicide Tolerance ratings by subtracting the percent crop injury rating (Table 6) for each line from 100% to obtain the percent herbicide tolerance (Table 7) (Ho=homozygous; He=heterozygous)."}, "[9]": {"test_system": "AHASL1A-A122T, A122T (Ho)", "settings": "18 Days After Treatment, line AHASL1A-A122T; for Mean Percent Crop Phytotoxicity (% Crop Injury): field, 2-4 leaf stage", "excerpt": "as §2, §3, §4, §5"}}, "note": "Where two headings read alike, the source gives them in different places.", "data": [{"compound": "COCc1cnc(C2=NC(C)(C(C)C)C(=O)N2)c(C(=O)O)c1", "note": "(stereo not drawn) [imazamox]", "values": [{"measurement": "Herbicide injury, mean ± one standard error of the mean, 0 to 9 scale (0 no injury, 9 plant death)", "setting": "[1]; 35 g ai/ha + 0.5% v/v Merge", "result": "4.19 ± 0.39"}, {"measurement": "Herbicide injury, mean ± one standard error of the mean, 0 to 9 scale (0 no injury, 9 plant death)", "setting": "[1]; 70 g ai/ha + 0.5% v/v Merge", "result": "5.43 ± 0.24"}, {"measurement": "Herbicide injury, mean ± one standard error of the mean, 0 to 9 scale (0 no injury, 9 plant death)", "setting": "[1]; 210 g ai/ha + 0.5% v/v Merge", "result": "6.65 ± 0.30"}, {"measurement": "Herbicide injury, mean ± one standard error of the mean, 0 to 9 scale (0 no injury, 9 plant death)", "setting": "[2]; 35 g ai/ha + 0.5% v/v Merge", "result": "9.00 ± 0.00"}, {"measurement": "Herbicide injury, mean ± one standard error of the mean, 0 to 9 scale (0 no injury, 9 plant death)", "setting": "[2]; 70 g ai/ha + 0.5% v/v Merge", "result": "9.00 ± 0.00"}, {"measurement": "Herbicide injury, mean ± one standard error of the mean, 0 to 9 scale (0 no injury, 9 plant death)", "setting": "[2]; 210 g ai/ha + 0.5% v/v Merge", "result": "9.00 ± 0.00"}, {"measurement": "Herbicide injury, mean ± one standard error of the mean, 0 to 9 scale (0 no injury, 9 plant death)", "setting": "[3]; 35 g ai/ha + 0.5% v/v Merge", "result": "0.76 ± 0.33"}, {"measurement": "Herbicide injury, mean ± one standard error of the mean, 0 to 9 scale (0 no injury, 9 plant death)", "setting": "[3]; 70 g ai/ha + 0.5% v/v Merge", "result": "2.53 ± 0.24"}, {"measurement": "Herbicide injury, mean ± one standard error of the mean, 0 to 9 scale (0 no injury, 9 plant death)", "setting": "[3]; 210 g ai/ha + 0.5% v/v Merge", "result": "3.22 ± 0.33"}, {"measurement": "Herbicide injury, mean ± one standard error of the mean, 0 to 9 scale (0 no injury, 9 plant death)", "setting": "[4]; 35 g ai/ha + 0.5% v/v Merge", "result": "1.81 ± 0.25"}, {"measurement": "Herbicide injury, mean ± one standard error of the mean, 0 to 9 scale (0 no injury, 9 plant death)", "setting": "[4]; 70 g ai/ha + 0.5% v/v Merge", "result": "4.14 ± 0.23"}, {"measurement": "Herbicide injury, mean ± one standard error of the mean, 0 to 9 scale (0 no injury, 9 plant death)", "setting": "[4]; 210 g ai/ha + 0.5% v/v Merge", "result": "6.17 ± 0.22"}, {"measurement": "Herbicide injury, mean ± one standard error of the mean, 0 to 9 scale (0 no injury, 9 plant death)", "setting": "[5]; 35 g ai/ha + 0.5% v/v Merge", "result": "1.21 ± 0.33"}, {"measurement": "Herbicide injury, mean ± one standard error of the mean, 0 to 9 scale (0 no injury, 9 plant death)", "setting": "[5]; 70 g ai/ha + 0.5% v/v Merge", "result": "4.13 ± 0.36"}, {"measurement": "Herbicide injury, mean ± one standard error of the mean, 0 to 9 scale (0 no injury, 9 plant death)", "setting": "[5]; 210 g ai/ha + 0.5% v/v Merge", "result": "4.93 ± 0.53"}, {"measurement": "Herbicide injury, mean ± one standard error of the mean, 0 to 9 scale (0 no injury, 9 plant death)", "setting": "[6]; 35 g ai/ha + 0.5% v/v Merge", "result": "7.22 ± 0.18"}, {"measurement": "Herbicide injury, mean ± one standard error of the mean, 0 to 9 scale (0 no injury, 9 plant death)", "setting": "[6]; 70 g ai/ha + 0.5% v/v Merge", "result": "8.61 ± 0.12"}, {"measurement": "Herbicide injury, mean ± one standard error of the mean, 0 to 9 scale (0 no injury, 9 plant death)", "setting": "[6]; 210 g ai/ha + 0.5% v/v Merge", "result": "9.00 ± 0.00"}, {"measurement": "Herbicide injury, mean ± one standard error of the mean, 0 to 9 scale (0 no injury, 9 plant death)", "setting": "[7]; 35 g ai/ha + 0.5% v/v Merge", "result": "4.08 ± 0.15"}, {"measurement": "Herbicide injury, mean ± one standard error of the mean, 0 to 9 scale (0 no injury, 9 plant death)", "setting": "[7]; 70 g ai/ha + 0.5% v/v Merge", "result": "8.58 ± 0.15"}, {"measurement": "Herbicide injury, mean ± one standard error of the mean, 0 to 9 scale (0 no injury, 9 plant death)", "setting": "[7]; 210 g ai/ha + 0.5% v/v Merge", "result": "8.00 ± 0.23"}, {"measurement": "Mean Percent Crop Phytotoxicity (% Crop Injury)", "setting": "[8]; 35 g ai/ha + 0.25% (v/v) NIS, 18 Days After Treatment, line PM1PM2/BnCL131A1", "result": 8.33, "unit": "%"}, {"measurement": "Mean Percent Herbicide Tolerance (100% minus percent crop injury)", "setting": "[8]; 35 g ai/ha, 18 Days After Treatment, line PM1PM2/BnCL131A1", "result": 91.7, "unit": "%"}, {"measurement": "Mean Percent Crop Phytotoxicity (% Crop Injury)", "setting": "[8]; 70 g ai/ha + 0.25% (v/v) NIS, 18 Days After Treatment, line PM1PM2/BnCL131A1", "result": 15, "unit": "%"}, {"measurement": "Mean Percent Herbicide Tolerance (100% minus percent crop injury)", "setting": "[8]; 70 g ai/ha, 18 Days After Treatment, line PM1PM2/BnCL131A1", "result": 85.0, "unit": "%"}, {"measurement": "Mean Percent Crop Phytotoxicity (% Crop Injury)", "setting": "[8]; 140 g ai/ha + 0.25% (v/v) NIS, 18 Days After Treatment, line PM1PM2/BnCL131A1", "result": 21.67, "unit": "%"}, {"measurement": "Mean Percent Herbicide Tolerance (100% minus percent crop injury)", "setting": "[8]; 140 g ai/ha, 18 Days After Treatment, line PM1PM2/BnCL131A1", "result": 78.3, "unit": "%"}, {"measurement": "Expected Additive % Herbicide Tolerance", "setting": "[8]; 140 g ai/ha", "result": 45, "unit": "%"}, {"measurement": "Expected Additive % Herbicide Tolerance", "setting": "[8]; 140 g ai/ha, listed as Beyond", "result": 45.0, "unit": "%"}, {"measurement": "Mean Percent Crop Phytotoxicity (% Crop Injury)", "setting": "[8]; 210 g ai/ha + 0.25% (v/v) NIS, 18 Days After Treatment, line PM1PM2/BnCL131A1", "result": 15, "unit": "%"}, {"measurement": "Mean Percent Herbicide Tolerance (100% minus percent crop injury)", "setting": "[8]; 210 g ai/ha, 18 Days After Treatment, line PM1PM2/BnCL131A1", "result": 85, "unit": "%"}, {"measurement": "Mean Percent Herbicide Tolerance (100% minus percent crop injury)", "setting": "[8]; 210 g ai/ha, 18 Days After Treatment, line PM1PM2/BnCL131A1, listed as Beyond", "result": 85.0, "unit": "%"}, {"measurement": "Expected Additive % Herbicide Tolerance", "setting": "[8]; 210 g ai/ha", "result": 55, "unit": "%"}, {"measurement": "Expected Additive % Herbicide Tolerance", "setting": "[8]; 210 g ai/ha, listed as Beyond", "result": 55.0, "unit": "%"}, {"measurement": "Mean Percent Crop Phytotoxicity (% Crop Injury), Mean over rates", "setting": "[8]; mean over 0, 35, 70, 140, 210 g ai/ha (N 15), 18 Days After Treatment, line PM1PM2/BnCL131A1", "result": 12, "unit": "%"}, {"measurement": "Mean Percent Crop Phytotoxicity (% Crop Injury)", "setting": "[9]; 35 g ai/ha + 0.25% (v/v) NIS", "result": 70, "unit": "%"}, {"measurement": "Mean Percent Herbicide Tolerance (100% minus percent crop injury)", "setting": "[9]; 35 g ai/ha", "result": 30.0, "unit": "%"}, {"measurement": "Mean Percent Crop Phytotoxicity (% Crop Injury)", "setting": "[9]; 70 g ai/ha + 0.25% (v/v) NIS", "result": 78.33, "unit": "%"}, {"measurement": "Mean Percent Herbicide Tolerance (100% minus percent crop injury)", "setting": "[9]; 70 g ai/ha", "result": 21.7, "unit": "%"}, {"measurement": "Mean Percent Crop Phytotoxicity (% Crop Injury)", "setting": "[9]; 210 g ai/ha + 0.25% (v/v) NIS", "result": 70, "unit": "%"}, {"measurement": "Mean Percent Herbicide Tolerance (100% minus percent crop injury)", "setting": "[9]; 210 g ai/ha", "result": 30.0, "unit": "%"}, {"measurement": "Mean Percent Crop Phytotoxicity (% Crop Injury), Mean over rates", "setting": "[9]; mean over 0, 35, 70, 140, 210 g ai/ha (N 15)", "result": 57, "unit": "%"}]}]}
